Assay: Half-lives of hydrolysis of the prodrugs in phosphate buffer at pH 7.4
Conditions: pH 7.4

SMILES	half-life [h]
CC[C@@]1(OC(=O)COCC(=O)OCCOCCN(C)C)C(=O)OCc2c1cc1n(c2=O)Cc2cc3ccccc3nc2-1	3
CC[C@@]1(OC(=O)COCC(=O)OC)C(=O)OCc2c1cc1n(c2=O)Cc2cc3ccccc3nc2-1	6.1
COCCOCCOCC(=O)Oc1cc(/C=C\c2cc(OC)c(OC)c(OC)c2)ccc1OC	10
CC[C@@]1(OC(=O)COCCOCCOC)C(=O)OCc2c1cc1n(c2=O)Cc2cc3ccccc3nc2-1	25
COc1ccc(/C=C\c2cc(OC)c(OC)c(OC)c2)cc1OC(=O)COCC(=O)O	4

Same assay, conditions: pH 7.4, Half-life of hydrolysis, Buffer (to mono), phosphate buffer at ph 7.4, hydrolysis to mono

SMILES	half-life [h]
COCCOCCOCC(=O)OCn1cc(F)c(=O)n(COC(=O)COCCOCCOC)c1=O	1.47
COCCOCC(=O)OCn1cc(F)c(=O)n(COC(=O)COCCOC)c1=O	1.47

Same assay, conditions: pH 7.4, Half-life of hydrolysis, Buffer, bis to mono, phosphate buffer at ph 7.4, bis to mono

SMILES	half-life [h]
Nc1nc2c(ncn2COCCOC(=O)COCC(=O)OCCOCn2cnc3c(=O)[nH]c(N)nc32)c(=O)[nH]1	10

Same assay, conditions: pH 7.4, Half-life of hydrolysis, Buffer, phosphate buffer at ph 7.4

half-life [h]	SMILES
22	COCCOCCOCC(=O)OCCOCn1cnc2c(=O)[nH]c(N)nc21
10	CC(C)OC(=O)COCC(=O)OCC1CCC(n2cnc3c(=O)[nH]cnc32)O1 (stereo not shown)
13.3 ± 0.2	COCCOCC(=O)OCC1OC(n2cc(C)c(=O)[nH]c2=O)CC1N=[N+]=[N-] (stereo not shown)
14 ± 1	COCCOCCOCC(=O)Nc1ccn(C2CCC(COC(=O)COCCOCCOC)O2)c(=O)n1 (stereo not shown)
40	Nc1nc2c(ncn2COCCOC(=O)COCC(=O)O)c(=O)[nH]1
11	CC(C)(C)OC(=O)COCC(=O)OCC1CCC(n2ccc(N)nc2=O)O1 (stereo not shown)
10	COCCOCCOCC(=O)OCC(COC(=O)COCCOCCOC)OCn1cnc2c(=O)[nH]c(N)nc21
30	Nc1ccn(C2CCC(COC(=O)COCCOCCO)O2)c(=O)n1 (stereo not shown)
8.2	CC(C)OC(=O)COCC(=O)OCC1CCC(n2ccc(N)nc2=O)O1 (stereo not shown)
21	Cc1cn(C2CC(N=[N+]=[N-])C(COC(=O)COCCOCCO)O2)c(=O)[nH]c1=O (stereo not shown)
46	O=C(COCCOCCO)OCC1CCC(n2cnc3c(=O)[nH]cnc32)O1 (stereo not shown)
12.3 ± 0.1	COCCOCCOCC(=O)OCC1OC(n2cc(C)c(=O)[nH]c2=O)CC1N=[N+]=[N-] (stereo not shown)
3.5	CN(C)CCOCCOC(=O)COCC(=O)OCC1CCC(n2cnc3c(=O)[nH]cnc32)O1 (stereo not shown)
24	COCCOCCOCC(=O)OCC1CCC(n2ccc(N)nc2=O)O1 (stereo not shown)
30	COCCOCCOCC(=O)OCC1CCC(n2cnc3c(=O)[nH]cnc32)O1 (stereo not shown)
40	COCCOCC(=O)OCC1CCC(n2cnc3c(=O)[nH]cnc32)O1 (stereo not shown)
7.28	COCCOCCOCC(=O)OCn1c(=O)[nH]cc(F)c1=O
9.4 ± 0.1	O=C(O)COCC(=O)OCC1CCC(n2cnc3c(=O)[nH]cnc32)O1 (stereo not shown)

Continued, molecule first:

SMILES	half-life [h]
COCCOCC(=O)OCn1c(=O)[nH]cc(F)c1=O	9.1
CC(C)(C)NC(=O)[C@@H]1[C@@H]2CCCC[C@@H]2CCN1C[C@@H](OC(=O)COCCOCCO)[C@H](Cc1ccccc1)NC(=O)[C@H](CC(N)=O)NC(=O)c1ccc2ccccc2n1	3.1 ± 0.1
COCCOCC(=O)O[C@@H](C[C@H](Cc1ccccc1)NC(=O)[C@@H](NC(=O)N(C)Cc1csc(C(C)C)n1)C(C)C)[C@H](Cc1ccccc1)NC(=O)OCc1cncs1	> 48
CC(C)OC(=O)COCC(=O)Nc1ccn(C2CCC(CO)O2)c(=O)n1 (stereo not shown)	18
CC(C)c1nc(CN(C)C(=O)N[C@H](C(=O)N[C@@H](Cc2ccccc2)C[C@H](OC(=O)COCC(=O)O)[C@H](Cc2ccccc2)NC(=O)OCc2cncs2)C(C)C)cs1	> 240
CN(C)CCOC(=O)COCC(=O)O[C@H](CN1CC[C@H]2CCCC[C@H]2[C@H]1C(=O)NC(C)(C)C)[C@H](Cc1ccccc1)NC(=O)[C@H](CC(N)=O)NC(=O)c1ccc2ccccc2n1	10
CC[C@@]1(OC(=O)COCCOC)C(=O)OCc2c1cc1n(c2=O)Cc2cc3ccccc3nc2-1	26
COC(=O)COCC(=O)O[C@H](CN1CC[C@H]2CCCC[C@H]2[C@H]1C(=O)NC(C)(C)C)[C@H](Cc1ccccc1)NC(=O)[C@H](CC(N)=O)NC(=O)c1ccc2ccccc2n1	2.5
CC(C)c1nc(CN(C)C(=O)N[C@H](C(=O)N[C@@H](Cc2ccccc2)C[C@H](OC(=O)COCC(=O)OCCOCCN(C)C)[C@H](Cc2ccccc2)NC(=O)OCc2cncs2)C(C)C)cs1	2.2
COc1ccc(/C=C\c2cc(OC)c(OC)c(OC)c2)cc1OC(=O)COCC(=O)OC(C)(C)C	8.5
CC(C)OC(=O)COCC(=O)O[C@H](CN1CC[C@H]2CCCC[C@H]2[C@H]1C(=O)NC(C)(C)C)[C@H](Cc1ccccc1)NC(=O)[C@H](CC(N)=O)NC(=O)c1ccc2ccccc2n1	5
COCCOCC(=O)OCn1cc(F)c(=O)[nH]c1=O	1.47
COCCOCC(=O)O[C@H](CN1CC[C@H]2CCCC[C@H]2[C@H]1C(=O)NC(C)(C)C)[C@H](Cc1ccccc1)NC(=O)[C@H](CC(N)=O)NC(=O)c1ccc2ccccc2n1	3.2 ± 0.5
CC(C)OC(=O)COCC(=O)Nc1ccn(C2CCC(COC(=O)COCC(=O)OC(C)C)O2)c(=O)n1 (stereo not shown)	5.6
CC(C)(C)OC(=O)COCC(=O)Nc1ccn(C2CCC(CO)O2)c(=O)n1 (stereo not shown)	16

Assay: Half-lives of hydrolysis of the prodrugs in human serum
Conditions: not given

SMILES	half-life [h]
CC[C@@]1(OC(=O)COCC(=O)OCCOCCN(C)C)C(=O)OCc2c1cc1n(c2=O)Cc2cc3ccccc3nc2-1	0.667
CC[C@@]1(OC(=O)COCC(=O)OC)C(=O)OCc2c1cc1n(c2=O)Cc2cc3ccccc3nc2-1	0.0333
COCCOCCOCC(=O)Oc1cc(/C=C\c2cc(OC)c(OC)c(OC)c2)ccc1OC	0.0333
CC[C@@]1(OC(=O)COCCOCCOC)C(=O)OCc2c1cc1n(c2=O)Cc2cc3ccccc3nc2-1	2
COc1ccc(/C=C\c2cc(OC)c(OC)c(OC)c2)cc1OC(=O)COCC(=O)O	0.0333

Same assay, conditions: Half-life of hydrolysis, Serum

half-life [h]	SMILES
0.0167	COCCOCCOCC(=O)OCCOCn1cnc2c(=O)[nH]c(N)nc21
0.0833	CC(C)OC(=O)COCC(=O)OCC1CCC(n2cnc3c(=O)[nH]cnc32)O1 (stereo not shown)
0.06 ± 0.00167	COCCOCC(=O)OCC1OC(n2cc(C)c(=O)[nH]c2=O)CC1N=[N+]=[N-] (stereo not shown)
0.583 ± 0.0833	COCCOCCOCC(=O)Nc1ccn(C2CCC(COC(=O)COCCOCCOC)O2)c(=O)n1 (stereo not shown)
25	Nc1nc2c(ncn2COCCOC(=O)COCC(=O)O)c(=O)[nH]1
0.0283	CC(C)(C)OC(=O)COCC(=O)OCC1CCC(n2ccc(N)nc2=O)O1 (stereo not shown)
0.617	COCCOCCOCC(=O)OCC(COC(=O)COCCOCCOC)OCn1cnc2c(=O)[nH]c(N)nc21
0.167 ± 0.0167	Nc1ccn(C2CCC(COC(=O)COCCOCCO)O2)c(=O)n1 (stereo not shown)
0.0217	CC(C)OC(=O)COCC(=O)OCC1CCC(n2ccc(N)nc2=O)O1 (stereo not shown)
0.333 ± 0.0167	Cc1cn(C2CC(N=[N+]=[N-])C(COC(=O)COCCOCCO)O2)c(=O)[nH]c1=O (stereo not shown)
0.0917 ± 0.00833	O=C(COCCOCCO)OCC1CCC(n2cnc3c(=O)[nH]cnc32)O1 (stereo not shown)
0.4033 ± 0.00333	COCCOCCOCC(=O)OCC1OC(n2cc(C)c(=O)[nH]c2=O)CC1N=[N+]=[N-] (stereo not shown)
0.05	CN(C)CCOCCOC(=O)COCC(=O)OCC1CCC(n2cnc3c(=O)[nH]cnc32)O1 (stereo not shown)
0.075	COCCOCCOCC(=O)OCC1CCC(n2ccc(N)nc2=O)O1 (stereo not shown)
0.02	COCCOCCOCC(=O)OCC1CCC(n2cnc3c(=O)[nH]cnc32)O1 (stereo not shown)
0.0367	COCCOCC(=O)OCC1CCC(n2cnc3c(=O)[nH]cnc32)O1 (stereo not shown)
0.0167	COCCOCCOCC(=O)OCn1c(=O)[nH]cc(F)c1=O
0.0667 ± 0.00833	O=C(O)COCC(=O)OCC1CCC(n2cnc3c(=O)[nH]cnc32)O1 (stereo not shown)

Further lines, the molecule ahead of its results:

SMILES	half-life [h]
COCCOCC(=O)OCn1c(=O)[nH]cc(F)c1=O	0.00833
CC(C)(C)NC(=O)[C@@H]1[C@@H]2CCCC[C@@H]2CCN1C[C@@H](OC(=O)COCCOCCO)[C@H](Cc1ccccc1)NC(=O)[C@H](CC(N)=O)NC(=O)c1ccc2ccccc2n1	6 ± 0.5
COCCOCC(=O)O[C@@H](C[C@H](Cc1ccccc1)NC(=O)[C@@H](NC(=O)N(C)Cc1csc(C(C)C)n1)C(C)C)[C@H](Cc1ccccc1)NC(=O)OCc1cncs1	24
CC(C)OC(=O)COCC(=O)Nc1ccn(C2CCC(CO)O2)c(=O)n1 (stereo not shown)	3.4
CC(C)c1nc(CN(C)C(=O)N[C@H](C(=O)N[C@@H](Cc2ccccc2)C[C@H](OC(=O)COCC(=O)O)[C@H](Cc2ccccc2)NC(=O)OCc2cncs2)C(C)C)cs1	40
CN(C)CCOC(=O)COCC(=O)O[C@H](CN1CC[C@H]2CCCC[C@H]2[C@H]1C(=O)NC(C)(C)C)[C@H](Cc1ccccc1)NC(=O)[C@H](CC(N)=O)NC(=O)c1ccc2ccccc2n1	35
CC[C@@]1(OC(=O)COCCOC)C(=O)OCc2c1cc1n(c2=O)Cc2cc3ccccc3nc2-1	2
COC(=O)COCC(=O)O[C@H](CN1CC[C@H]2CCCC[C@H]2[C@H]1C(=O)NC(C)(C)C)[C@H](Cc1ccccc1)NC(=O)[C@H](CC(N)=O)NC(=O)c1ccc2ccccc2n1	4.5
CC(C)c1nc(CN(C)C(=O)N[C@H](C(=O)N[C@@H](Cc2ccccc2)C[C@H](OC(=O)COCC(=O)OCCOCCN(C)C)[C@H](Cc2ccccc2)NC(=O)OCc2cncs2)C(C)C)cs1	1
COc1ccc(/C=C\c2cc(OC)c(OC)c(OC)c2)cc1OC(=O)COCC(=O)OC(C)(C)C	0.123
CC(C)OC(=O)COCC(=O)O[C@H](CN1CC[C@H]2CCCC[C@H]2[C@H]1C(=O)NC(C)(C)C)[C@H](Cc1ccccc1)NC(=O)[C@H](CC(N)=O)NC(=O)c1ccc2ccccc2n1	10
COCCOCC(=O)OCn1cc(F)c(=O)[nH]c1=O	0.1
COCCOCC(=O)O[C@H](CN1CC[C@H]2CCCC[C@H]2[C@H]1C(=O)NC(C)(C)C)[C@H](Cc1ccccc1)NC(=O)[C@H](CC(N)=O)NC(=O)c1ccc2ccccc2n1	16 ± 1
CC(C)OC(=O)COCC(=O)Nc1ccn(C2CCC(COC(=O)COCC(=O)OC(C)C)O2)c(=O)n1 (stereo not shown)	0.162
CC(C)(C)OC(=O)COCC(=O)Nc1ccn(C2CCC(CO)O2)c(=O)n1 (stereo not shown)	5

Same assay, conditions: Half-life of hydrolysis, Serum (to mono), hydrolysis to mono

SMILES	half-life [h]
COCCOCCOCC(=O)OCn1cc(F)c(=O)n(COC(=O)COCCOCCOC)c1=O	0.00833
COCCOCC(=O)OCn1cc(F)c(=O)n(COC(=O)COCCOC)c1=O	0.00333

Same assay, conditions: Half-life of hydrolysis, Serum, bis to mono

SMILES	half-life [h]
Nc1nc2c(ncn2COCCOC(=O)COCC(=O)OCCOCn2cnc3c(=O)[nH]c(N)nc32)c(=O)[nH]1	4
